# Data reported in patent US8778929B2, “Substituted heteroaryl inhibitors of B-RAF” (Boehringer Ingelheim International GmbH, priority 2008, dated 2014).
# Biological target: B-Raf (V600E)-kinase (Homo sapiens, UniProt P15056, V600E)
# Assay: Kinase test B-Raf (V600E)
# Format: biochemical
# Conditions: compound concentration 2 μM; 100% = no inhibition, 0% = total inhibition; read-out: % CTL (residual activity of the enzyme relative to DMSO control)
# Experimental: In a dilution series 10 μL of test substance solution are placed in a multiwell plate. The dilution series is selected so that generally a range of concentrations of 2 μM to 0.119 nM or 0.017 nM is covered. If necessary the initial concentration of 2 μM is changed to 50 μM, 10 μM or 0.4 μM or 0.2857 μM and further dilution is carried out accordingly. The final concentration of DMSO is 5%. 10 μL of the B-Raf (V600E)-kinase solution are pipetted in (containing 0.5 ng B-Raf (V600E)-kinase in 20 mM Tris-HCl pH 7.5, 0.1 mM EDTA, 0.1 mM EGTA, 0.286 mM sodium orthovanadate, 10% glycerol, 1 mg/mL bovine serum albumin, 1 mM dithiothreitol) and the mixture is incubated for 1 h at RT under with shaking The kinase reaction is started by the addition of 20 μL ATP solution [final concentration: 250 μM ATP, 30 mM Tris-HCl pH 7.5, 0.02% Brij, 0.2 mM sodium orthovanadate, 10 mM magnesium acetate, 0.1 mM EGTA, phosphatase cocktail (Sigma, # P2850, dilution recommended by the manufacturer), 0.1 mM EGTA] and 10 μL MEK1 solution [containing 50 ng biotinylated MEK1 (prepared from purified MEK1 according to standard procedure, e.g. with EZ-Link Sulpho-NHS-LC-Biotin reagent, Pierce, # 21335) and carried out for 60 min at RT with constant shaking. The reaction is stopped by the addition of 12 μL of a 100 mM EDTA solution and incubation is continued for a further 5 min. 55 μL of the reaction solution are transferred into a streptavidin-coated plate (e.g. Streptawell HighBond, Roche, #11989685001) and shaken gently for 1 h at RT, in order to bind biotinylated MEK1 to the plate. After elimination of the liquid the plate is washed five times with 200 μL of 1×PBS and 100 μL solution of primary antibody plus europium-labelled secondary antibody [Anti Phospho-MEK (Ser217/221), Cell Signaling, # 9121 and Eu-N1 labeled goat-anti-rabbit antibody, Perkin Elmer, #AD0105], the primary antibody is diluted 1:2000 and the secondary antibody is diluted to 0.4-0.5 μg/mL in Delfia Assay Buffer (Perkin Elmer, #1244-111). After 1 h shaking at RT the solution is poured away and washed five times with 200 μL Delfia Wash Buffer (Perkin Elmer, #4010-0010/#1244-114). After the addition of 200 μL Enhancement Solution (Perkin Elmer, #4001-0010/#1244-105) the mixture is shaken for 10 min at RT and then measured in a Wallac Victor using the program “Delfia Time Resolved Fluorescence (Europium)”. IC50 values are obtained from these dosage-activity curves using a software program (GraphPadPrizm).
# A value of 100% indicates no inhibition while a value of 0% indicates total inhibition. The % CTL values denote the residual activity of the enzyme after the addition of the inhibitory compound in the solvent DMSO in relation to the enzyme activity in the solvent DMSO without the addition of a compound (control). The values were determined using the B-Raf(V600E)-kinase test described above.
# B-Raf (V600E)-kinase, sequence (P15056 whole entry V600E): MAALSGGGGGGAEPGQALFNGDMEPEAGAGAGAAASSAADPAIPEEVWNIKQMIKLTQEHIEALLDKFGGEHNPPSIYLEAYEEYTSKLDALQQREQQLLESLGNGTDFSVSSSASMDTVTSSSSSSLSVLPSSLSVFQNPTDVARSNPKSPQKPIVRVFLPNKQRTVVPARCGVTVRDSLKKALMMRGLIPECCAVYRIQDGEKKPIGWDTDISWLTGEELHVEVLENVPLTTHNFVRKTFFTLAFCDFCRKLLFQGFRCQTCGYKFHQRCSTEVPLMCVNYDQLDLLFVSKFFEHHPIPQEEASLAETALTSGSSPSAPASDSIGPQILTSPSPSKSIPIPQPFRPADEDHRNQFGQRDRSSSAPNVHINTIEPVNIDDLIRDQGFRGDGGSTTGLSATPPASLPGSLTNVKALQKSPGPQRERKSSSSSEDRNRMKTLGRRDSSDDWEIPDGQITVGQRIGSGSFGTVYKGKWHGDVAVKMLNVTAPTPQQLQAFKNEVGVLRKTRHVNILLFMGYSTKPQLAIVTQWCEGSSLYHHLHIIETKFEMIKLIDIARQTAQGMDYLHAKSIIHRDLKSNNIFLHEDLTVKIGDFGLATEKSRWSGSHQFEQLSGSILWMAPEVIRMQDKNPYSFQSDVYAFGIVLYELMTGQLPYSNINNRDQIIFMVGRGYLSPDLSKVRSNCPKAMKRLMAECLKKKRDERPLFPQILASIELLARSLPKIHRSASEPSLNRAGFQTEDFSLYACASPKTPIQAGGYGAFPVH
row,remaining activity at 2 µM [%],SMILES
1,7.6,Cc1ncc(C(=O)Nc2cc(C(C)(C)C)on2)cc1-n1cc(-c2cnn(C)c2C)nn1 [Example I-1]
2,8,Cc1ncc(C(=O)Nc2cc(C(F)(F)F)ccn2)cc1-n1cc(-c2cnn(C)c2C)nn1 [Example I-2]
3,8.7,Cc1ncc(C(=O)Nc2cc(N3CCN(C)CC3)cc(C(F)(F)F)c2)cc1-n1cc(-c2cnn(C)c2C)nn1 [Example I-3]
4,1.7,Cc1ncc(C(=O)Nc2cc(C(C)(C)C)nn2C)cc1-n1cc(-c2cnn(C)c2C)nn1 [Example I-4]
5,2.1,Cc1ncc(C(=O)Nc2cc(N3CCN(C)CC3)c(C)c(C(F)(F)F)c2)cc1-n1cc(-c2cnn(C)c2C)nn1 [Example I-6]
6,2,COc1ccc(NC(=O)c2cnc(C)c(-n3cc(-c4cnn(C)c4C)nn3)c2)cc1C(F)(F)F [Example I-7]
7,1.6,Cc1ccc(C(F)(F)F)cc1NC(=O)c1cnc(C)c(-n2cc(-c3cnn(C)c3C)nn2)c1 [Example I-8]
8,1.4,COc1c(NC(=O)c2cnc(C)c(-n3cc(-c4cnn(C)c4C)nn3)c2)cc(C(C)(C)C)cc1NS(C)(=O)=O [Example I-9]
9,1.1,Cc1ncc(C(=O)Nc2cc(N3CCN(C)CC3)c(F)c(C(F)(F)F)c2)cc1-n1cc(-c2cnn(C)c2C)nn1 [Example I-10]
10,1.8,Cc1ncc(C(=O)Nc2cc(CN3CCCC3)cc(C(F)(F)F)c2)cc1-n1cc(-c2cnn(C)c2C)nn1 [Example I-12]
11,2.3,COc1c(CNC(C)C)cc(C(F)(F)F)cc1NC(=O)c1cnc(C)c(-n2cc(-c3cnn(C)c3C)nn2)c1 [Example I-13]
12,1.4,CC(=O)Nc1ncc(-c2cn(-c3cc(C(=O)Nc4cc(C(F)(F)F)ccn4)cnc3C)nn2)s1 [Example I-14]
13,1.4,CC(=O)Nc1ncc(-c2cn(-c3cc(C(=O)Nc4cc(CN5CCCC5)cc(C(F)(F)F)c4)cnc3C)nn2)s1 [Example I-15]
14,2.4,Cc1ncc(C(=O)Nc2cc(N3CCN(C)CC3)cc(C(F)(F)F)c2)cc1-n1cc(-c2cncnc2)nn1 [Example I-18]
15,1.9,CCN1CCN(c2cc(NC(=O)c3cnc(C)c(-n4cc(-c5cncnc5)nn4)c3)cc(C(F)(F)F)c2C)CC1 [Example I-20]
16,2.2,Cc1ncc(C(=O)Nc2cc(C(C)(C)C)on2)cc1-n1cc(-c2cncnc2)nn1 [Example I-21]
17,5.9,Cc1ncc(C(=O)Nc2cc(C(F)(F)F)ccn2)cc1-n1cc(-c2cncnc2)nn1 [Example I-23]
18,1,COc1cncc(-c2cn(-c3cc(C(=O)Nc4cc(N5CCN(C)CC5)cc(C(F)(F)F)c4)cnc3C)nn2)c1 [Example I-24]
19,2.2,COc1cncc(-c2cn(-c3cc(C(=O)Nc4cc(N5CCN(C)CC5)c(F)c(C(F)(F)F)c4)cnc3C)nn2)c1 [Example I-25]
20,1.4,CCN1CCN(c2cc(NC(=O)c3cnc(C)c(-n4cc(-c5cncc(OC)c5)nn4)c3)cc(C(F)(F)F)c2C)CC1 [Example I-26]
21,3.3,COc1cncc(-c2cn(-c3cc(C(=O)Nc4cc(C(C)(C)C)on4)cnc3C)nn2)c1 [Example I-27]
22,2.5,COc1cncc(-c2cn(-c3cc(C(=O)Nc4cc(C(F)(F)F)ccn4)cnc3C)nn2)c1 [Example I-29]
23,6.9,Cc1cn2c(-c3cn(-c4cc(C(=O)Nc5cc(C(C)(C)C)nn5C)cnc4C)nn3)cnc2cn1 [Example I-30]
24,1.5,Cc1cn2c(-c3cn(-c4cc(C(=O)Nc5cc(C(F)(F)F)ccn5)cnc4C)nn3)cnc2cn1 [Example I-32]
25,1.4,COc1ccc(NC(=O)c2cnc(C)c(-n3cc(-c4cnc5cnc(C)cn45)nn3)c2)cc1C(F)(F)F [Example I-33]

row,remaining activity at 2 µM [%],SMILES
1,1.5,Cc1ncc(C(=O)Nc2cc(C(C)(C)C)on2)cc1-n1cc(-c2cncc(Br)c2)nn1 [Example I-34]
2,1.7,Cc1ncc(C(=O)Nc2cc(C(C)(C)C)on2)cc1-n1cc(-c2cncc(N3CCOCC3)c2)nn1 [Example I-35]
3,1.8,Cc1ncc(C(=O)Nc2cc(C(C)(C)C)on2)cc1-n1cc(-c2cncc(N3CCCOCC3)c2)nn1 [Example I-36]
4,2.5,Cc1ncc(C(=O)Nc2cc(C(C)(C)C)on2)cc1-n1cc(-c2cncc(NC3CCOC3)c2)nn1 (centres unmarked) [Example I-37]
5,2.4,Cc1ncc(C(=O)Nc2cc(C(C)(C)C)on2)cc1-n1cc(-c2cncc(N(C)C3CCOC3)c2)nn1 (centres unmarked) [Example I-38]
6,1.5,Cc1ncc(C(=O)Nc2cc(C(C)(C)C)on2)cc1-n1cc(-c2cncc(N3CCN(C)CC3)c2)nn1 [Example I-39]
7,1.4,Cc1ncc(C(=O)Nc2cc(C(C)(C)C)on2)cc1-n1cc(-c2cncc(NC3CCOCC3)c2)nn1 [Example I-40]
8,1.1,COCCNc1cncc(-c2cn(-c3cc(C(=O)Nc4cc(C(C)(C)C)on4)cnc3C)nn2)c1 [Example I-41]
9,1.6,Cc1ncc(C(=O)Nc2cc(C(C)(C)C)no2)cc1-n1cc(-c2cnn(C)c2C)nn1 [Example I-42]
10,1.1,CCN1CCN(c2cc(NC(=O)c3cnc(C)c(-n4cc(-c5cncs5)nn4)c3)cc(C(F)(F)F)c2C)CC1 [Example I-43]
11,3.3,Cc1cn2c(-c3cn(-c4cc(C(=O)Nc5cc(N6CCN(C)CC6)c(C)c(C(F)(F)F)c5)cnc4C)nn3)cnc2cn1 [Example I-44]
12,3.2,Cc1cn2c(-c3cn(-c4cc(C(=O)Nc5cc(N6CCN(C)CC6)cc(C(F)(F)F)c5)cnc4C)nn3)cnc2cn1 [Example I-45]
13,6.1,CCN1CCN(c2cc(NC(=O)c3cnc(C)c(-n4cc(-c5cccnc5)nn4)c3)cc(C(F)(F)F)c2C)CC1 [Example I-46]
14,2,CCN1CCN(c2cc(NC(=O)c3cnc(C)c(-n4cc(-c5ccc(NC(C)=O)nc5)nn4)c3)cc(C(F)(F)F)c2C)CC1 [Example I-47]
15,1.7,CCN1CCN(c2cc(NC(=O)c3cnc(C)c(-n4cc(-c5cnc(NC(C)=O)s5)nn4)c3)cc(C(F)(F)F)c2C)CC1 [Example I-48]
16,6.2,CCN1CCN(c2cc(NC(=O)c3cnc(C)c(-n4cc(-c5cncc(C#N)c5)nn4)c3)cc(C(F)(F)F)c2C)CC1 [Example I-49]
17,2.2,COc1c(CNC(C)C)cc(NC(=O)c2cnc(C)c(-n3cc(-c4cnc5cnc(C)cn45)nn3)c2)cc1C(F)(F)F [Example I-50]
18,4,Cc1ncc(C(=O)Nc2cc(OC(F)(F)F)cc(N3CCN(C)CC3)c2)cc1-n1cc(-c2cncs2)nn1 [Example I-51]
19,1.6,Cc1ncc(C(=O)Nc2cc(CN(C)C)c(Cl)c(C(F)(F)F)c2)cc1-n1cc(-c2cnn(C)c2C)nn1 [Example I-52]
20,1.4,Cc1ncc(C(=O)Nc2cc(CN3CCCC3)c(Cl)c(C(F)(F)F)c2)cc1-n1cc(-c2cnn(C)c2C)nn1 [Example I-53]
21,1.2,Cc1ncc(C(=O)Nc2cc(CNC(C)C)c(Cl)c(C(F)(F)F)c2)cc1-n1cc(-c2cnn(C)c2C)nn1 [Example I-54]
22,1.2,Cc1ncc(C(=O)Nc2cc(CNCC(C)C)c(Cl)c(C(F)(F)F)c2)cc1-n1cc(-c2cnn(C)c2C)nn1 [Example I-55]
23,1.4,Cc1ncc(C(=O)Nc2cc(Br)c(C)c(C(F)(F)F)c2)cc1-n1cc(-c2cnn(C)c2C)nn1 [Example I-56]
24,2.3,CCN1CCN(c2cc(NC(=O)c3cnc(C)c(-n4cc(-c5cnn(C)c5C)nn4)c3)cc(C(F)(F)F)c2C)CC1 [Example I-57]

# Same assay, conditions: measurement at 0.29 μM (*); 100% = no inhibition, 0% = total inhibition; read-out: % CTL (residual activity of the enzyme relative to DMSO control)
row,remaining activity at 0.29 µM [%],SMILES
1,2,CC(=O)Nc1ncc(-c2cn(-c3cc(C(=O)Nc4cc(N5CCN(C)CC5)cc(C(F)(F)F)c4)cnc3C)nn2)s1 [Example I-16]
